Measurements: the CheMixHub ionic liquid set
± gives the uncertainty stated by the source.

Experiment: xn = mol fraction of the nth substance listed

C[N+](C)(C)CCO.O=S(=O)([N-]S(=O)(=O)C(F)(F)F)C(F)(F)F + OCCCCCO
101 kPa
Settings	viscosity [mPa·s]
318.15 K, x2 = 0.2149	37.3 ± 2.1
323.15 K, x2 = 0	39.3 ± 2.2
323.15 K, x2 = 0.2149	31.2 ± 1.8
328.15 K, x2 = 0.2149	26.3 ± 1.5
333.15 K, x2 = 0.2149	22.5 ± 1.3
338.15 K, x2 = 0.4145	16.11 ± 0.95
343.15 K, x2 = 0.6847	12.37 ± 0.74

CCCCCCCCn1cc[n+](C)c1.[Cl-] + O
Settings	electrical conductivity [S/m]	viscosity [mPa·s]
278.15 K, 100 kPa, x1 = 0.0001	–	1.534 ± 0.011
278.15 K, 100 kPa, x1 = 0.0001668	–	1.543 ± 0.011
278.15 K, 100 kPa, x1 = 0.0002526	–	1.559 ± 0.012
278.15 K, 100 kPa, x1 = 0.0003767	–	1.575 ± 0.012
278.15 K, 100 kPa, x1 = 0.0005495	–	1.603 ± 0.012
278.15 K, 100 kPa, x1 = 0.000764	–	1.642 ± 0.012
278.15 K, 100 kPa, x1 = 0.0009813	–	1.683 ± 0.013
283.15 K, 100 kPa, x1 = 0.0001	–	1.316 ± 0.01
283.15 K, 100 kPa, x1 = 0.0001668	–	1.322 ± 0.01
283.15 K, 100 kPa, x1 = 0.0002526	–	1.33 ± 0.01
283.15 K, 100 kPa, x1 = 0.0003767	–	1.346 ± 0.01
283.15 K, 100 kPa, x1 = 0.0005495	–	1.368 ± 0.01
283.15 K, 100 kPa, x1 = 0.000764	–	1.404 ± 0.011
283.15 K, 100 kPa, x1 = 0.0009813	–	1.439 ± 0.011
288.15 K, 100 kPa, x1 = 0.0001	–	1.151 ± 0.009
288.15 K, 100 kPa, x1 = 0.0001668	–	1.165 ± 0.009
288.15 K, 100 kPa, x1 = 0.0002526	–	1.182 ± 0.009
288.15 K, 100 kPa, x1 = 0.0003767	–	1.206 ± 0.009
288.15 K, 100 kPa, x1 = 0.0005495	–	1.233 ± 0.009
288.15 K, 100 kPa, x1 = 0.000764	–	1.27 ± 0.01
288.15 K, 100 kPa, x1 = 0.0009813	–	1.304 ± 0.01
293.15 K, 100 kPa, x1 = 0.0001	–	1.01 ± 0.008
293.15 K, 100 kPa, x1 = 0.0001668	–	1.014 ± 0.008
293.15 K, 100 kPa, x1 = 0.0002526	–	1.021 ± 0.008
293.15 K, 100 kPa, x1 = 0.0003767	–	1.031 ± 0.008
293.15 K, 100 kPa, x1 = 0.0005495	–	1.046 ± 0.008
293.15 K, 100 kPa, x1 = 0.000764	–	1.068 ± 0.008
293.15 K, 100 kPa, x1 = 0.0009813	–	1.09 ± 0.008
298.15 K, 100 kPa, x1 = 0.0001	–	0.898 ± 0.007
298.15 K, 100 kPa, x1 = 0.0001668	–	0.901 ± 0.007
298.15 K, 100 kPa, x1 = 0.0002526	–	0.906 ± 0.007
298.15 K, 100 kPa, x1 = 0.0003767	–	0.916 ± 0.007
298.15 K, 100 kPa, x1 = 0.0005495	–	0.929 ± 0.007
298.15 K, 100 kPa, x1 = 0.000764	–	0.947 ± 0.007
298.15 K, 100 kPa, x1 = 0.0009813	–	0.965 ± 0.007
298.15 K, 101.3 kPa, x1 = 4.96e-06	0.00314 ± 3e-05	–
298.15 K, 101.3 kPa, x1 = 7.53e-06	0.00467 ± 5e-05	–
298.15 K, 101.3 kPa, x1 = 1.002e-05	0.00613 ± 6e-05	–
298.15 K, 101.3 kPa, x1 = 1.247e-05	0.00756 ± 8e-05	–
298.15 K, 101.3 kPa, x1 = 1.481e-05	0.00893 ± 9e-05	–
298.15 K, 101.3 kPa, x1 = 1.716e-05	0.01029 ± 0.0001	–
298.15 K, 101.3 kPa, x1 = 1.95e-05	0.0116 ± 0.00012	–
298.15 K, 101.3 kPa, x1 = 2.177e-05	0.0129 ± 0.00013	–
298.15 K, 101.3 kPa, x1 = 2.424e-05	0.01436 ± 0.00014	–
298.15 K, 101.3 kPa, x1 = 2.667e-05	0.0158 ± 0.00016	–
298.15 K, 101.3 kPa, x1 = 2.939e-05	0.0173 ± 0.00017	–
303.15 K, 100 kPa, x1 = 0.0001	–	0.804 ± 0.006
303.15 K, 100 kPa, x1 = 0.0001668	–	0.807 ± 0.006
303.15 K, 100 kPa, x1 = 0.0002526	–	0.812 ± 0.006
303.15 K, 100 kPa, x1 = 0.0003767	–	0.819 ± 0.006
303.15 K, 100 kPa, x1 = 0.0005495	–	0.83 ± 0.006
303.15 K, 100 kPa, x1 = 0.000764	–	0.845 ± 0.007
303.15 K, 100 kPa, x1 = 0.0009813	–	0.861 ± 0.007
308.15 K, 100 kPa, x1 = 0.0001	–	0.725 ± 0.006
308.15 K, 100 kPa, x1 = 0.0001668	–	0.727 ± 0.006
308.15 K, 100 kPa, x1 = 0.0002526	–	0.732 ± 0.006
308.15 K, 100 kPa, x1 = 0.0003767	–	0.737 ± 0.006
308.15 K, 100 kPa, x1 = 0.0005495	–	0.747 ± 0.006
308.15 K, 100 kPa, x1 = 0.000764	–	0.761 ± 0.006
308.15 K, 100 kPa, x1 = 0.0009813	–	0.775 ± 0.006
313.15 K, 100 kPa, x1 = 0.0001	–	0.658 ± 0.005
313.15 K, 100 kPa, x1 = 0.0002526	–	0.665 ± 0.005
313.15 K, 100 kPa, x1 = 0.0003767	–	0.669 ± 0.005
313.15 K, 100 kPa, x1 = 0.0005495	–	0.677 ± 0.005
313.15 K, 100 kPa, x1 = 0.000764	–	0.689 ± 0.005
313.15 K, 100 kPa, x1 = 0.0009813	–	0.701 ± 0.006

298.15 K, 100 kPa, frequency 0.001 MHz
Settings	electrical conductivity [S/m]
x1 = 0.001709	0.532 ± 0.0084
x1 = 0.002014	0.588 ± 0.0091
x1 = 0.002301	0.647 ± 0.0096
x1 = 0.00266	0.716 ± 0.01
x1 = 0.002911	0.765 ± 0.01
x1 = 0.003215	0.824 ± 0.011
x1 = 0.003519	0.889 ± 0.011
x1 = 0.003824	0.941 ± 0.011
x1 = 0.004074	0.978 ± 0.011
x1 = 0.004467	1.02 ± 0.011
x1 = 0.004967	1.08 ± 0.011
x1 = 0.005947	1.16 ± 0.012
